# Measurements published in ChEMBL document CHEMBL3217613, “Novel thalidomide analogues with potent NFB and TNF expression inhibition” (Medchemcomm, 2011).
# Key:
# Assay type in all cases: cell-based
# [1] = molecular target: T1, Nuclear factor NF-kappa-B complex (Homo sapiens) (UniProt Q00653+P19838+Q04206); experiment: Inhibition of NFkappaB in human FRT-Jurkat cells expressing GFP assessed as reduction of TNF expression at 10 uM after 24 hrs by flow cytometry relative to control
# [2] = molecular target: T1, Nuclear factor NF-kappa-B complex (Homo sapiens); experiment: Inhibition of NFkappaB in human FRT-Jurkat cells expressing GFP assessed as reduction of TNF expression at 100 uM after 24 hrs by flow cytometry relative to control
# Jurkat = experiment: Cytotoxicity against human FRT-Jurkat cells assessed as reduction of cell viability by measuring cleaved caspase 3 at 10 uM by flow cytometer
# [3] = molecular target: T1, Nuclear factor NF-kappa-B complex (Homo sapiens); experiment: Ratio of thalidomide to compound for inhibition of NFkappaB in human FRT-Jurkat cells expressing GFP assessed as reduction of TNF expression at 10 uM
# T1 sequence (P19838 whole entry, looked up): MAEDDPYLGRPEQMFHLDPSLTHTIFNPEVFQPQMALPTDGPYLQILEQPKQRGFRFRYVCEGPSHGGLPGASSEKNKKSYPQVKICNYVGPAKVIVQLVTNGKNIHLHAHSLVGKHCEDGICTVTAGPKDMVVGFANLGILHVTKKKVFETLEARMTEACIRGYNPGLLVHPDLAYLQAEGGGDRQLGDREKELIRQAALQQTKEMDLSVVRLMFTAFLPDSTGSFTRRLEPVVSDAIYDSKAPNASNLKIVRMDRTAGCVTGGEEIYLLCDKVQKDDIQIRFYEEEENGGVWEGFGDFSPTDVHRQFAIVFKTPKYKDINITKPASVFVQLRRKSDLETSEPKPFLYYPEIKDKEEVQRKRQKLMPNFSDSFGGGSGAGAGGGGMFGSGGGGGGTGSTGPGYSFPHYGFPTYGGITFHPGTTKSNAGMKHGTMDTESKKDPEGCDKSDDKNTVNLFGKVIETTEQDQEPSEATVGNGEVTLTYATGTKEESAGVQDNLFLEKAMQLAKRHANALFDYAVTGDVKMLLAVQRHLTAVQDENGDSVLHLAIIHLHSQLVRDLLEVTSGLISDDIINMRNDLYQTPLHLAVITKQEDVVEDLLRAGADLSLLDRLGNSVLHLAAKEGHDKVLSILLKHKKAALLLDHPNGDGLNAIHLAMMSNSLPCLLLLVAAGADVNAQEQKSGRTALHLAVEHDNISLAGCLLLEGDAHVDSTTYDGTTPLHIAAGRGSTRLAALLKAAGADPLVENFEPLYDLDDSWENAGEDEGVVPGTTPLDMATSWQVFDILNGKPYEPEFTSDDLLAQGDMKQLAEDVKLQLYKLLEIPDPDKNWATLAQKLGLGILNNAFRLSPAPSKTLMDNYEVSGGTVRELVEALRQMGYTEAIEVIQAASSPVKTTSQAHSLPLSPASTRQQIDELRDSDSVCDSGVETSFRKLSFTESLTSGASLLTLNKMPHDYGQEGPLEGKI
# T1 sequence (Q00653 whole entry, looked up): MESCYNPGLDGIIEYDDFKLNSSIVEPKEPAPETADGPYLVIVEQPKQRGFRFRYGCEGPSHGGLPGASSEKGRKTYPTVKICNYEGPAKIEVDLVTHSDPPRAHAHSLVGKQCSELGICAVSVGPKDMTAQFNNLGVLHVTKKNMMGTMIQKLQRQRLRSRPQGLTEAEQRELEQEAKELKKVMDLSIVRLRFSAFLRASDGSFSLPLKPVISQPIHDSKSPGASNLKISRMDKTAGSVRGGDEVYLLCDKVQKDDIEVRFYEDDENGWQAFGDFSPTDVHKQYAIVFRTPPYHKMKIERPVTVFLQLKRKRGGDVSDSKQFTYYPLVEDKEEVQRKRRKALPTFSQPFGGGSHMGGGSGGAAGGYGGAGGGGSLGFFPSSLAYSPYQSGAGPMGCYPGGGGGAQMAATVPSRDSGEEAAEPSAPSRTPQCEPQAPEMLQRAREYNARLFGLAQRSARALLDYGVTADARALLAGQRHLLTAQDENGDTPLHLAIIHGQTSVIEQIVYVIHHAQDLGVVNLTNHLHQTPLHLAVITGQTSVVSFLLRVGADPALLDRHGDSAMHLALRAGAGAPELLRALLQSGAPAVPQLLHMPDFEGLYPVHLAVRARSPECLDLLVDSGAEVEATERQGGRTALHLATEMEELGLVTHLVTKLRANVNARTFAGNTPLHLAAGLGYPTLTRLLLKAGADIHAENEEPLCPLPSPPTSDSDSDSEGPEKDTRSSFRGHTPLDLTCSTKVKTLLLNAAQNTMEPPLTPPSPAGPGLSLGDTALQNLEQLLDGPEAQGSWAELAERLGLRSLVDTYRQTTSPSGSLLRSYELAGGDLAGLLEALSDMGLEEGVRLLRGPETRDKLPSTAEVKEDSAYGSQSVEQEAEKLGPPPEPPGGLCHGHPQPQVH
# T1 sequence (Q04206 whole entry, looked up): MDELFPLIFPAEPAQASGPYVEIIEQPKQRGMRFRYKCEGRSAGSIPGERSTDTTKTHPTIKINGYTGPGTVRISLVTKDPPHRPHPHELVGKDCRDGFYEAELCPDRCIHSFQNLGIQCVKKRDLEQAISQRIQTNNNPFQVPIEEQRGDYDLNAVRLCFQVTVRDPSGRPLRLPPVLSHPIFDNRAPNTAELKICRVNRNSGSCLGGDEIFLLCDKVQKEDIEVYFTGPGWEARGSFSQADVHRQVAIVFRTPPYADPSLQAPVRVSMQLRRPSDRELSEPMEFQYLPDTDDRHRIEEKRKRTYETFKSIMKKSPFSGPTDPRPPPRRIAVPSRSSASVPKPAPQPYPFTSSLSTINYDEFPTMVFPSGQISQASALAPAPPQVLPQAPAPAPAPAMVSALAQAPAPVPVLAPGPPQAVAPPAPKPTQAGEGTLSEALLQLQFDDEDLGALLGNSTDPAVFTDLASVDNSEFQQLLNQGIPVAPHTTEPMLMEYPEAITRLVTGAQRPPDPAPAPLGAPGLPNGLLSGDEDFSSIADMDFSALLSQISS
SMILES,inhibition [1],inhibition [2],Ratio [3],Activity (Jurkat)
CCOC(=O)c1ccc(Nc2cccc3c2C(=O)N(C2CCC(=O)NC2=O)C3=O)cc1 (configuration not stated),10%,,,89%
Nc1cccc2c1CN(C1CCC(=O)NC1=O)C2=O (configuration not stated),4%,6%,,
Cc1ccccc1Nc1cccc2c1C(=O)N(C1CCC(=O)NC1=O)C2=O (configuration not stated),7%,,,89%
CCc1ccc(Nc2cccc3c2C(=O)N(C2CCC(=O)NC2=O)C3=O)cc1 (configuration not stated),17%,,,89%
Cc1ccccc1Nc1ccc2c(c1)C(=O)N(C1CCC(=O)NC1=O)C2=O (configuration not stated),2%,,,
CC(C)(C)c1ccc(Nc2cccc3c2C(=O)N(C2CCC(=O)NC2=O)C3=O)cc1 (configuration not stated),36%,,,89%
O=C1CCC(N2C(=O)c3ccc(Nc4ccccn4)cc3C2=O)C(=O)N1 (configuration not stated),9%,,,
CCCCCc1ccc(Nc2ccc3c(c2)C(=O)N(C2CCC(=O)NC2=O)C3=O)cc1 (configuration not stated),12%,,,
CCCCCc1ccc(Nc2cccc3c2C(=O)N(C2CCC(=O)NC2=O)C3=O)cc1 (configuration not stated),23%,,,89%
Cc1ccc(Nc2cccc3c2C(=O)N(C2CCC(=O)NC2=O)C3=O)cc1 (configuration not stated),9%,,,89%
O=C1CCC(N2C(=O)c3cccc(Nc4ccc(O)cc4)c3C2=O)C(=O)N1 (configuration not stated),4%,,,89%
CCc1ccc(Nc2ccc3c(c2)C(=O)N(C2CCC(=O)NC2=O)C3=O)cc1 (configuration not stated),5%,,,
CCCc1ccc(Nc2cccc3c2C(=O)N(C2CCC(=O)NC2=O)C3=O)cc1 (configuration not stated),23%,,,89%
CC(=O)c1ccc(Nc2cccc3c2C(=O)N(C2CCC(=O)NC2=O)C3=O)cc1 (configuration not stated),2%,,,89%
COc1ccc(Nc2ccc3c(c2)C(=O)N(C2CCC(=O)NC2=O)C3=O)cc1 (configuration not stated),29%,,,
CC(C)(C)c1ccc(Nc2ccc3c(c2)C(=O)N(C2CCC(=O)NC2=O)C3=O)cc1 (configuration not stated),17%,,,
CC(=O)c1ccc(Nc2ccc3c(c2)C(=O)N(C2CCC(=O)NC2=O)C3=O)cc1 (configuration not stated),-2%,,,
O=C1CCC(N2C(=O)c3ccc(Nc4ccc(O)cc4)cc3C2=O)C(=O)N1 (configuration not stated),4%,,,

# Further lines, with some results ahead:
inhibition [1],inhibition [2],Ratio [3],SMILES,Activity (Jurkat)
4%,16%,,O=C1CCC(N2C(=O)c3cccc(Nc4ccccc4)c3C2=O)C(=O)N1 (configuration not stated),89%
5%,,,CCOC(=O)c1ccc(Nc2ccc3c(c2)C(=O)N(C2CCC(=O)NC2=O)C3=O)cc1 (configuration not stated),
6%,17%,2,O=C1CCC(N2C(=O)c3ccc(Nc4ccccc4)cc3C2=O)C(=O)N1 (configuration not stated),
11%,,,CC(C)c1ccc(Nc2ccc3c(c2)C(=O)N(C2CCC(=O)NC2=O)C3=O)cc1 (configuration not stated),
1%,,,O=C1CCC(N2C(=O)c3cccc(Nc4ccccn4)c3C2=O)C(=O)N1 (configuration not stated),89%
13%,,,COc1ccc(Nc2cccc3c2C(=O)N(C2CCC(=O)NC2=O)C3=O)cc1 (configuration not stated),89%
10%,,,CCCc1ccc(Nc2ccc3c(c2)C(=O)N(C2CCC(=O)NC2=O)C3=O)cc1 (configuration not stated),
2%,4%,,O=C1CCC(N2C(=O)c3ccccc3C2=O)C(=O)N1 (racemic),
-2%,,,CN(c1ccccc1)c1ccc2c(c1)C(=O)N(C1CCC(=O)NC1=O)C2=O (configuration not stated),
5%,,,Cc1ccc(Nc2ccc3c(c2)C(=O)N(C2CCC(=O)NC2=O)C3=O)cc1 (configuration not stated),
19%,,,CC(C)c1ccc(Nc2cccc3c2C(=O)N(C2CCC(=O)NC2=O)C3=O)cc1 (configuration not stated),89%
